Laboratory results published in US12617758B2, “Quinazoline derivative having FLT3 inhibitory activity, and use thereof” (INDUSTRY-UNIVERSITY COOPERATION FOUNDATION HANYANG …, priority 2020, dated 2026).

Columns and labels:
Type in all cases: biochemical
FLT3 = biological target: T1, FLT3 (Homo sapiens, UniProt P36888); assay: FLT3 enzyme activity (IC50); conditions: read-out: FLT3 IC50
T1 sequence (P36888 27-993): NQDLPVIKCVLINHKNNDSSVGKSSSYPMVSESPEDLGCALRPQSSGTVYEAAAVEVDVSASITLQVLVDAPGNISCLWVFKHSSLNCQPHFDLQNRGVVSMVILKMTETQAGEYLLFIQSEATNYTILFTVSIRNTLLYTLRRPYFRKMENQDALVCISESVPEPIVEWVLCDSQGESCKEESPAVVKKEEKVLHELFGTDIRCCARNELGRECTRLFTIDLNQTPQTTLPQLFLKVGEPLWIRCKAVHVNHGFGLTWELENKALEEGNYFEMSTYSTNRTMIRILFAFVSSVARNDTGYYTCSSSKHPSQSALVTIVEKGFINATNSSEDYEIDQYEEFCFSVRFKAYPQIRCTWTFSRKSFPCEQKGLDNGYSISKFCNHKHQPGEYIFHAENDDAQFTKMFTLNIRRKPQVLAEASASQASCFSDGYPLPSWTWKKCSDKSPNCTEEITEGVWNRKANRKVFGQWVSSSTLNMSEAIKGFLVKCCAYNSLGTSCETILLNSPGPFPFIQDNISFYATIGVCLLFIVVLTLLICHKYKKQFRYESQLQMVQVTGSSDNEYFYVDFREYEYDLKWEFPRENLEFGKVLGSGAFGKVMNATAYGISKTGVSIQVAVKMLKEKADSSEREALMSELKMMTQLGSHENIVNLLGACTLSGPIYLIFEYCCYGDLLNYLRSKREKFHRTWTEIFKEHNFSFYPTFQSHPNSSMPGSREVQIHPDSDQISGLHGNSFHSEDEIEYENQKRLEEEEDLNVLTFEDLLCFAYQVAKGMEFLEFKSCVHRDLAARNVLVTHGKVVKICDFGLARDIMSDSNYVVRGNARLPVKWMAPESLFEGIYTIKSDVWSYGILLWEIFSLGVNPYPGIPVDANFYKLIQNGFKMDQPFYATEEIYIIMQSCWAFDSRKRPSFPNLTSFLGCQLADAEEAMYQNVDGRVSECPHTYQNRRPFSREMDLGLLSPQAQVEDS
Excerpt: (§1) Experimental Example 1. Measurement of FLT3 and FLT Enzyme Activity
(§2) Changes in FLT3 and FLT enzyme activities by treatment with the quinazoline derivatives of the following Table 1 according to the present invention were confirmed by IC50.

FLT (ITD) = biological target: T2, FLT (ITD) (Homo sapiens, UniProt P36888); assay: FLT (ITD) enzyme activity (IC50); conditions: read-out: FLT (ITD) IC50
T2 sequence (P36888 1-993): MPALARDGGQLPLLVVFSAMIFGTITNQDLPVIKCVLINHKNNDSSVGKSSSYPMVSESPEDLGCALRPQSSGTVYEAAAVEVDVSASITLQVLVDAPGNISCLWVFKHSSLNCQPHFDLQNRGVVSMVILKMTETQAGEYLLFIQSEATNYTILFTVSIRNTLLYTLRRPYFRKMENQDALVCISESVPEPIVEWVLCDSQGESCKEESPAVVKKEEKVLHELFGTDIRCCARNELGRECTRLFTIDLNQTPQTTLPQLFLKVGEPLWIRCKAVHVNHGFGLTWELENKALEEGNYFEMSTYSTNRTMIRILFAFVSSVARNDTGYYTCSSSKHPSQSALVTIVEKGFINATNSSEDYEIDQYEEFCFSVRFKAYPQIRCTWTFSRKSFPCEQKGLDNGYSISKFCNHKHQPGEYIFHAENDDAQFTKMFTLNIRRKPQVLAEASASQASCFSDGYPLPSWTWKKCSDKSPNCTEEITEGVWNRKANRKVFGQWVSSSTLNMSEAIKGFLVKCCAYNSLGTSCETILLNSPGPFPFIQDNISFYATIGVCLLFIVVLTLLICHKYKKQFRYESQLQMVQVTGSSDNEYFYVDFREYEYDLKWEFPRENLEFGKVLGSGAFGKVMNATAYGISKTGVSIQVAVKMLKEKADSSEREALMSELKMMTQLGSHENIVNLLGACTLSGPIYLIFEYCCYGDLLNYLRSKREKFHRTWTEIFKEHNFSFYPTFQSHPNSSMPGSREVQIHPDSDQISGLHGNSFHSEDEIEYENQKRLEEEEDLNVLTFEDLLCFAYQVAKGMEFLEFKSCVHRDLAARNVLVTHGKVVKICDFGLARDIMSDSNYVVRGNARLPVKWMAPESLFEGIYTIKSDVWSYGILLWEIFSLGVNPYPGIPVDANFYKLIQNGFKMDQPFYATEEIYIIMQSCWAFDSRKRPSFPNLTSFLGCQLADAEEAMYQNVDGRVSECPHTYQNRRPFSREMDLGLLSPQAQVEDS
Excerpt: as §1, §2

RIPK3 = RIPK3 (Homo sapiens, UniProt Q9Y572); assay: Kinase panel screening; conditions: read-out: IC50 (nM), data of GW5074, control GW5074 instead of staurosporine
Description: Next, kinase panel screening for Compound 7d was investigated for 36 different kinases at a single dose of 10 μM (FIG. 1 and Table 3).

ERK1 = ERK1 (Homo sapiens, UniProt P27361); assay: Kinase panel screening; conditions: control SCH772984 instead of staurosporine
ERK1, sequence (P27361 whole entry, species assumed): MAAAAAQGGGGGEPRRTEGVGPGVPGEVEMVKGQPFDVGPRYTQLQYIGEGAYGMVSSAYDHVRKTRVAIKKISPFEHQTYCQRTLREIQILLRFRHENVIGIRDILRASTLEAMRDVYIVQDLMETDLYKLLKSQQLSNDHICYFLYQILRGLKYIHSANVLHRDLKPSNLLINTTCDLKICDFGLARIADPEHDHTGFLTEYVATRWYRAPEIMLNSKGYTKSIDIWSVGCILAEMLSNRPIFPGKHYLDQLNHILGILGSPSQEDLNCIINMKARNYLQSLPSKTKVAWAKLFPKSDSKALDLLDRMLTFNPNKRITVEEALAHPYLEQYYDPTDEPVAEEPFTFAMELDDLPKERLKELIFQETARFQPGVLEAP

RIPK3, sequence (Q9Y572 whole entry, species assumed): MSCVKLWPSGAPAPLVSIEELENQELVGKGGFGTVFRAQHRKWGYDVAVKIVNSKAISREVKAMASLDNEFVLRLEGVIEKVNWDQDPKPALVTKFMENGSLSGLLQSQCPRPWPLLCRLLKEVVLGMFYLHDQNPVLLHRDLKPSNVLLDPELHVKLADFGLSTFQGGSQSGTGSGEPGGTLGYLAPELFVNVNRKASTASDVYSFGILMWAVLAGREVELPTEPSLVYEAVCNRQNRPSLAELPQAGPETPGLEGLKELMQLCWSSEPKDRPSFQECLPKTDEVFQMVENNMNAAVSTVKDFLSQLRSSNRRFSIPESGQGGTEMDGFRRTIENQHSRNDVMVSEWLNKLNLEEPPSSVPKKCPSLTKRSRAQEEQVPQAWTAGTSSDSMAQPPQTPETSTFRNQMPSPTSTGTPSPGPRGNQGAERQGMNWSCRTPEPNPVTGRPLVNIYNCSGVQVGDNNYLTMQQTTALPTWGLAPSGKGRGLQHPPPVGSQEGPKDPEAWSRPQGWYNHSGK

Row | SMILES | IC50 (FLT3) [µM] | IC50 (FLT (ITD)) [µM] | IC50 (RIPK3) [nM] | IC50 (ERK1) [nM]
1 | Cc1oncc1C(=O)Nc1ccc2cnc(-c3cc(N4CCOCC4)cc(C(F)(F)F)c3)nc2c1 [Compound 7b, 5-methyl-N-(2-(3-morpholino-5-(trifluoromethyl)phenyl)quinzolin-7-yl)isoxazole-4-carboxamide] | 3 to 10 | 3 to 10 | – | –
2 | Cc1oncc1C(=O)Nc1ccc2cnc(-c3ccc(Cl)c(C(F)(F)F)c3)nc2c1 [Compound 7g, N-(2-(4-chloro-3-(trifluoromethyl)phenyl)quinazolin-7-yl)-5-methylisoxazole-4-carboxamide] | > 10 | > 10 | – | –
3 | Cc1oncc1C(=O)Nc1ccc2cnc(-c3cccc(Cl)c3)nc2c1 [Compound 7i, N-(2-(3-chlorophenyl)quinazolin-7-yl)-5-methylisoxazole-4-carboxamide] | > 10 | > 10 | – | –
4 | Cc1oncc1C(=O)Nc1ccc2cnc(-c3cc(C(C)(C)C)on3)nc2c1 [Compound 7l, N-(2-(5-(tert-butyl)isoxazol-3-yl)quinazolin-7-yl)-5-methylisoxazole-4-carboxamide] | > 10 | > 10 | – | –
5 | Cc1oncc1C(=O)Nc1ccc2cnc(-c3cc(OC4CCN(C)CC4)cc(C(F)(F)F)c3)nc2c1 [Compound 7n, 5-methyl-N-(2-(3-((1-methylpiperidin-4-yl)oxy)-5-(trifluoromethyl)phenyl)quinazolin-7-yl)isoxazole-4-carboxamide] | 3 to 10 | 3 to 10 | – | –
6 | CC(=O)N1CCC(c2ncc3ccc(NC(=O)c4cnoc4C)cc3n2)CC1 [Compound 7o, N-(2-(1-acetylpiperidin-4-yl)quinazolin-7-yl)-5-methylisoxazole-4-carboxamide] | > 10 | > 10 | – | –
7 | Cc1oncc1C(=O)Nc1ccc2cnc(-c3ccncc3)nc2c1 [Compound 7p, 5-methyl-N-(2-(pyridin-4-yl)quinazolin-7-yl)isoxazole-4-carboxamide] | > 10 | > 10 | – | –
8 | Cc1oncc1C(=O)Nc1ccc2cnc(-c3ccc(Cl)c(Cl)c3)nc2c1 [Compound 7r, N-(2-(3,4-dichlorophenyl)quinazolin-7-yl)-5-methylisoxazole-4-carboxamide] | > 10 | > 10 | – | –
9 | Cc1oncc1C(=O)Nc1ccc2cnc(Cc3ccc(F)cc3)nc2c1 [Compound 7s, N-(2-(4-fluorobenzyl)quinazolin-7-yl)-5-methylisoxazole-4-carboxamide] | > 10 | > 10 | – | –
10 | Cc1oncc1C(=O)Nc1ccc2cnc(-c3ccc4c(c3)CCO4)nc2c1 [Compound 7v, N-(2-(2,3-dihydrobenzofuran-5-yl)quinazolin-7-yl)-5-methylisoxazole-4-carboxamide] | > 10 | > 10 | – | –
11 | COc1ccc(CCc2ncc3ccc(NC(=O)c4cnoc4C)cc3n2)cc1 [Compound 7w, N-(2-(4-methoxyphenethyl)quinazolin-7-yl)-5-methylisoxazole-4-carboxamide] | > 10 | > 10 | – | –

The remaining lines, values ahead:

Row | IC50 (FLT3) [µM] | IC50 (FLT (ITD)) [µM] | IC50 (RIPK3) [nM] | IC50 (ERK1) [nM] | SMILES
12 | > 10 | > 10 | – | – | Cc1oncc1C(=O)Nc1ccc2cnc(-c3ccc(N4CCOCC4)c(C(F)(F)F)c3)nc2c1 [Compound 7a, 5-methyl-N-(2-(4-morpholino-5-(trifluoromethyl)phenyl)quinazolin-7-yl)isoxazole-4-carboxamide]
13 | < 3 | < 3 | – | – | Cc1cn(-c2cc(-c3ncc4ccc(NC(=O)c5cnoc5C)cc4n3)cc(C(F)(F)F)c2)cn1 [Compound 7c, 5-methyl-N-(2-(3-(4-methyl-1H-imidazol-1-yl)-5-(trifluoromethyl)phenyl)quinazolin-7-yl)isoxazole-4-carboxamide]
14 | < 3 | 3 to 10 | – | – | CCN1CCN(Cc2cc(-c3ncc4ccc(NC(=O)c5cnoc5C)cc4n3)cc(C(F)(F)F)c2)CC1 [Compound 7e, N-(2-(3-((4-ethylpiperazin-1-yl)methyl)-5-(trifluoromethyl)phenyl)quinazolin-7-yl)-5-methylisoxazole-4-carboxamide]
15 | > 10 | > 10 | – | – | Cc1oncc1C(=O)Nc1ccc2cnc(-c3cc(F)cc(C(F)(F)F)c3)nc2c1 [Compound 7f, N-(2-(3-fluoro-5-(trifluoromethyl)phenyl)quinazolin-7-yl)-5-methylisoxazole-4-carboxamide]
16 | > 10 | > 10 | – | – | Cc1oncc1C(=O)Nc1ccc2cnc(-c3cnn(-c4ccccc4)c3C(F)(F)F)nc2c1 [Compound 7h, 5-methyl-N-(2-(1-phenyl-5-(trifluoromethyl)-1H-pyrazol-4-yl)quinazolin-7-yl)isoxazole-4-carboxamide]
17 | 3 to 10 | > 10 | – | – | COc1ccc(/C=C/c2ncc3ccc(NC(=O)c4cnoc4C)cc3n2)cc1 [Compound 7j, (E)-N-(2-(4-methoxystyryl)quinazolin-7-yl)-5-methylisoxazole-4-carboxamide]
18 | > 10 | > 10 | – | – | Cc1oncc1C(=O)Nc1ccc2cnc(/C=C/c3ccc(Cl)cc3)nc2c1 [Compound 7k, (E)-N-(2-(4-chlorostyryl)quinazolin-7-yl)-5-methylisoxazole-4-carboxamide]
19 | > 10 | > 10 | – | – | Cc1oncc1C(=O)Nc1ccc2cnc(-c3ccccn3)nc2c1 [Compound 7q, 5-methyl-N-(2-(pyridin-2-yl)quinazolin-7-yl)isoxazole-4-carboxamide]
20 | > 10 | > 10 | – | – | Cc1oncc1C(=O)Nc1ccc2cnc(Cc3ccccc3C(F)(F)F)nc2c1 [Compound 7t, 5-methyl-N-(2-(2-(trifluoromethyl)benzyl)quinazolin-7-yl)isoxazole-4-carboxamide]
21 | > 10 | > 10 | – | – | Cc1oncc1C(=O)Nc1ccc2cnc(-c3ccc4ccccc4c3)nc2c1 [Compound 7u, 5-methyl-N-(2-(naphthalen-2-yl)quinazolin-7-yl)isoxazole-4-carboxamide]
22 | – | – | 1650 | – | O=C1Nc2ccc(I)cc2/C1=C/c1cc(Br)c(O)c(Br)c1 [GW5074, reference compound]
23 | – | – | – | 4.47 | O=C(Nc1ccc2[nH]nc(-c3ccncc3)c2c1)[C@@H]1CCN(CC(=O)N2CCN(c3ccc(-c4ncccn4)cc3)CC2)C1 [SCH772984, reference compound]
